Data published in publication PMC12144822 (Parasites & Vectors, 2025).
Entries after “also recorded” stand apart in the source; their conditions may differ. Read-outs that look alike come from different tables or passages of the source.

Key:
Hsa-GABA α2β3γ2 = Hsa-GABA α2β3γ2 (Homo sapiens, UniProt P18507+P28472+P47869); test: Two-electrode voltage-clamp inhibition of GABA current, receptor expressed in Xenopus oocytes
Text: (§1) Complementary DNA (cDNA) encoding for the human GABAA proteins α1 (NM_001127645.2), α2 (NM_001377146.1), α3 (KJ620007.1), α4 (NM_000809.4), α5 (NM_000810.4), α6 (NM_000811.3), β2 (XM_054352312.1), β3 (M82919.1), γ2 (NM_000816.3) and δ (NM_000815.5) were ordered from Genewiz (www.genewiz.com; Leipzig, Germany); for each gene, GenBank accession numbers are provided in parentheses. When necessary, silent mutations were introduced to break NheI or XhoI internal restriction sites. The corresponding open reading frames (ORF) were cloned into the pT7-TS transcription vector (introducing X. laevis β-globin untranslated cDNA to the 5’ and 3’ ends of the gene), following a procedure described in detail in a previous publication. The same process was used to obtain cDNA encoding canine GABAA proteins α4 (XM_025435560.1), α6 (XM_022417729.1) and δ (XM_005620414.2). Gene α2 (XM_025435664.1), α3 (XM_549343.5), α5 (XM_545805.6) and β3 (XM_025437408.1) were obtained by PCR; GenBank reference accession numbers are provided in parentheses. RNA extraction, cDNA synthesis and PCR amplification were performed as described previously. Total RNA was extracted from a piece of dog brain (Beagle breed; Canis lupus familiaris) from which 1 µg of total RNA (DNase-treated) was reverse-transcribed to cDNA using a (dT)30 primer and SuperScript III Reverse Transcriptase (Invitrogen, Thermo Fisher Scientific, Waltham, MA, USA). Gene-specific primers (Additional file 1: Table S1) were designed using Primer 3 software (http://frodo.wi.mit.edu/). […] The cycling conditions were: 98 °C for 30 s; then 38 cycles of 98 °C for 10 s, 58 °C for 30 s and 72 °C for 90 s; followed by 72 °C for 5 min. The dog subunits α1 (XM_546261.5), β2 (XM_014113040.1) and γ2 (XM_546259.5) had been previously amplified and described in a study by Rufener et al..
(§2) Defoliculated X. laevis oocytes ordered from Ecocyte Bioscience (Dortmund, Germany) were microinjected with 15–25 nl of cRNA solution (5–50 ng/μl) per oocyte using an automated injector (Roboinject; Multi Channel Systems MCS GmbH, Reutlingen, Germany) and then incubated at 18 °C. All recordings were made 1–5 days post-cRNA injection and were performed at 18 ± 4 °C. Cells were superfused with OR2 medium (NaCl 88 mM, KCl 2.5 mM, HEPES 5 mM, CaCl2•2H2O 1.8 mM, MgCl2•7H2O 1.0 mM, pH 7.4). To ensure that γ2 subunits were integrated into the heteropentamers, we injected fivefold more γ2 than the other subunit cRNAs. Diazepam is a positive allosteric modulator of GABAR only if γ2 subunits are present. Therefore, we used this method to confirm the presence of human and dog GABAA receptor containing the γ2 subunit.
(§3) Voltage-clamp measurements were performed as described by Rufener et al.. Oocytes were impaled with two electrodes filled with 3 M KCl, and their membrane potentials were maintained at − 80 mV throughout the experiment. […] Recordings were performed using an automated process equipped with standard two-electrode voltage-clamp configuration (HiClamp system; Multi Channel Systems MCS GmbH). Data were filtered at 10 Hz, captured at 100 Hz and analyzed using proprietary data acquisition and analysis software in MATLAB (Mathworks Inc., Natick, MA, USA). Additional analyses were performed using Excel (Microsoft, Redmond, WA, USA). […] Graphing the maximum inward currents against the log of agonist concentration produces typical concentration-activation and concentration-inhibition curves, which can be accurately described using individual Hill equations.

Hsa-GABA α5β2γ2 = Hsa-GABA α5β2γ2 (Homo sapiens, UniProt P18507+P31644+P47870); test: as above
Text: as §1, §2, §3

Hsa-GABA α3β2γ2 = Hsa-GABA α3β2γ2 (Homo sapiens, UniProt P18507+P34903+P47870); test: as above
Text: as §1, §2, §3

Hsa-GABA α6β2γ2 = Hsa-GABA α6β2γ2 (Homo sapiens, UniProt P18507+P47870+Q16445); test: as above
Text: as §1, §2, §3

Hsa-GABA α2β2γ2 = Hsa-GABA α2β2γ2 (Homo sapiens, UniProt P18507+P47869+P47870); test: as above
Text: as §1, §2, §3

Clu-GABARs = test: Voltage-clamp inhibition, summary over the five canine subunit combinations; assay type: cell-based, Canis lupus familiaris; settings: at 30 μM
Experimental: as §2
as §3, with “equations. The concentration-activation curves were fitted using the following equation: Y=100/1+10^H(logEC50-X) where Y is the normalized response, logEC50 is the logarithm of the concentration of agonist eliciting half-maximal current amplitude, X is the log of the dose or concentration, and H is the slope factor or Hill slope. The same equation was used for the concentration-inhibition curves but logEC50 was replaced by logIC50 (half-maximal inhibitory concentration).” for “equations.”
(§4) The agonist and the drug were then washed off for 15 s and the oocyte was exposed again to the same drug concentration for 25 s before increasing to the next concentration.

Hsa-GABARs = test: Voltage-clamp inhibition, summary over the six human subunit combinations; settings: for average GABA current inhibition: at 30 μM, average over Hsa-GABARs; for inhibition of human GABARs (in words): tested up to 30 μM
Experimental: as §2
as §3, with “equations. The concentration-activation curves were fitted using the following equation: Y=100/1+10^H(logEC50-X) where Y is the normalized response, logEC50 is the logarithm of the concentration of agonist eliciting half-maximal current amplitude, X is the log of the dose or concentration, and H is the slope factor or Hill slope. The same equation was used for the concentration-inhibition curves but logEC50 was replaced by logIC50 (half-maximal inhibitory concentration).” for “equations.”
as §4

Clu-GABA α2β3γ2 = Clu-GABA α2β3γ2 (Canis lupus familiaris, UniProt A0A8I3NUI4+A0A8I3S1N5+E2RSQ0); test: Two-electrode voltage-clamp inhibition of GABA current, receptor expressed in Xenopus oocytes; assay type: cell-based
Text: as §1, §2, §3

Clu-GABA α1β2γ2 = Clu-GABA α1β2γ2 (Canis lupus familiaris, UniProt A0A2H4NNI8+A0A8I3RPG5+E2RSQ0); test: as above; assay type: cell-based
Text: as §1, §2, §3

Clu-GABA α3β2γ2 = Clu-GABA α3β2γ2 (Canis lupus familiaris, UniProt A0A8I3PRS3+A0A8I3RPG5+E2RSQ0); test: as above; assay type: cell-based
Text: as §1, §2, §3

Clu-GABA α2β2γ2 = Clu-GABA α2β2γ2 (Canis lupus familiaris, UniProt A0A8I3RPG5+A0A8I3S1N5+E2RSQ0); test: as above; assay type: cell-based
Text: as §1, §2, §3

Clu-GABA α5β2γ2 = Clu-GABA α5β2γ2 (Canis lupus familiaris, UniProt A0A8I3PC22+A0A8I3RPG5+E2RSQ0); test: as above; assay type: cell-based
Text: as §1, §2, §3

human and canine GABARs = test: Voltage-clamp inhibition, summary over human and canine receptors; assay type: cell-based; settings: for inhibitory effect on human and canine GABARs (in words): tested up to 30 μM
Experimental: as §2
as §3, with “equations. The concentration-activation curves were fitted using the following equation: Y=100/1+10^H(logEC50-X) where Y is the normalized response, logEC50 is the logarithm of the concentration of agonist eliciting half-maximal current amplitude, X is the log of the dose or concentration, and H is the slope factor or Hill slope. The same equation was used for the concentration-inhibition curves but logEC50 was replaced by logIC50 (half-maximal inhibitory concentration).” for “equations.”
as §4

[1] = parameters: method as in PMID 33733534; settings: cited from earlier work; for maximum plasma concentration: dose of 25 mg/kg body weight; for maximum in vivo concentration in dog plasma: oral treatment at the minimum recommended dose
Hsa-GABA α1β2γ2 = Hsa-GABA α1β2γ2 (Homo sapiens, UniProt P14867+P18507+P47870); test: Two-electrode voltage-clamp inhibition of GABA current, receptor expressed in Xenopus oocytes
Text: as §1, §2, §3

[2] = parameters: method as in earlier work; settings: mdr1 mutant mouse model; cited from earlier work
[3] = parameters: method as in PMID 40269978; settings: MDR1 mutant dog breeds; cited from earlier work
[4] = test system: human and dog GABAA receptor containing the γ2 subunit; test: Positive modulation by diazepam to confirm γ2 incorporation; assay type: cell-based; settings: all receptor subtypes expressed; data not shown
Experimental: as §2

[5] = Xenopus oocytes, −80 mV, 60 s pre-exposure, co-applied with GABA 1 µM (near EC10)
[6] = Xenopus oocytes, −80 mV, 60 s pre-exposure, co-applied with GABA 0.3 µM (near EC10)
[7] = Xenopus oocytes, −80 mV, 60 s pre-exposure, co-applied with GABA 3 µM (near EC10)
[8] = Xenopus oocytes, −80 mV, 60 s pre-exposure, co-applied with GABA 0.5 µM (near EC10)
[9] = Xenopus oocytes, −80 mV, 60 s pre-exposure, co-applied with GABA 5 µM (near EC10)

Sequence of Clu-GABA α3β2γ2 (A0A8I3PRS3 29-259): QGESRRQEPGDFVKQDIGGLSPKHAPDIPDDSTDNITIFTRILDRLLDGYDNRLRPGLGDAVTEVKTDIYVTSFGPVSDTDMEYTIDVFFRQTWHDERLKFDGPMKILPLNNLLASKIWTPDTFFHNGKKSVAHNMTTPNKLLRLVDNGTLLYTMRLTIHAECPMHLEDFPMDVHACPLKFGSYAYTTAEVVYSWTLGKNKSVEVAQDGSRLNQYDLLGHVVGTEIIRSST
Sequence of Clu-GABA α3β2γ2 (A0A8I3RPG5 25-473): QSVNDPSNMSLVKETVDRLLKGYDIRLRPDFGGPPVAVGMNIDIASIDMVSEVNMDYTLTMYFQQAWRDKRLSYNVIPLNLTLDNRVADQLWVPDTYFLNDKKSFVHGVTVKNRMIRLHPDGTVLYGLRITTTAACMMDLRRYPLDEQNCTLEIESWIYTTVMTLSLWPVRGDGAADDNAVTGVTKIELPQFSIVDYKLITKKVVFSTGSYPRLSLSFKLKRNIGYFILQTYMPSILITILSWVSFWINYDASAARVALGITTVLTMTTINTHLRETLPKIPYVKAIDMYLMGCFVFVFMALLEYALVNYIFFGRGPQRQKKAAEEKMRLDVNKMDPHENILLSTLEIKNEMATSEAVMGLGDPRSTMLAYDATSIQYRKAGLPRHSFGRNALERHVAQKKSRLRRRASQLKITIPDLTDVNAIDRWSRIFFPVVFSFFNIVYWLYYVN
Sequence of Clu-GABA α3β2γ2 (E2RSQ0 40-467): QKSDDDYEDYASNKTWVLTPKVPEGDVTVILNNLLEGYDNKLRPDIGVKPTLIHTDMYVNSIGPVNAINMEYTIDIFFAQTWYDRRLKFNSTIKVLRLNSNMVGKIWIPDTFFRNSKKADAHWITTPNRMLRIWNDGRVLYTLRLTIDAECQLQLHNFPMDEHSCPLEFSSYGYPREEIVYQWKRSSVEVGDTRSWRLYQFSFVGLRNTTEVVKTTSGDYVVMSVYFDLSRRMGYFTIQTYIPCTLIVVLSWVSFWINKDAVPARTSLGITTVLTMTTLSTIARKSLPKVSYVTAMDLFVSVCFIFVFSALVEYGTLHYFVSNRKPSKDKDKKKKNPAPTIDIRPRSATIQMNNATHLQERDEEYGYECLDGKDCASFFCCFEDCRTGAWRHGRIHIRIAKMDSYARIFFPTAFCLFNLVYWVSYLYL
Sequence of Clu-GABA α5β2γ2 (A0A8I3PC22 32-462): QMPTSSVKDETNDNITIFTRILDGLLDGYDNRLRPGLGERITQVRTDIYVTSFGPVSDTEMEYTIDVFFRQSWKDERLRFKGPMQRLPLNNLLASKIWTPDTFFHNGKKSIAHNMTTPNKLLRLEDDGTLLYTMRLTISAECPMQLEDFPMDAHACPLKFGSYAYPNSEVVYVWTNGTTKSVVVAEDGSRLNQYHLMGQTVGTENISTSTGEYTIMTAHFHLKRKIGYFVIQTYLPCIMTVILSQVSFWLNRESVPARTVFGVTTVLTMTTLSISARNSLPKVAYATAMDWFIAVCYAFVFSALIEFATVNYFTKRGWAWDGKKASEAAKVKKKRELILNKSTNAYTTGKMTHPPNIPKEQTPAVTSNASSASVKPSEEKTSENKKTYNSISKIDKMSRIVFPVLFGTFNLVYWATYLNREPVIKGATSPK
Sequence of Clu-GABA α5β2γ2 (A0A8I3RPG5 25-473): as the sequence (A0A8I3RPG5 25-473) above
Sequence of Clu-GABA α5β2γ2 (E2RSQ0 40-467): as the sequence (E2RSQ0 40-467) above
Sequence of Clu-GABA α1β2γ2 (A0A2H4NNI8 28-456): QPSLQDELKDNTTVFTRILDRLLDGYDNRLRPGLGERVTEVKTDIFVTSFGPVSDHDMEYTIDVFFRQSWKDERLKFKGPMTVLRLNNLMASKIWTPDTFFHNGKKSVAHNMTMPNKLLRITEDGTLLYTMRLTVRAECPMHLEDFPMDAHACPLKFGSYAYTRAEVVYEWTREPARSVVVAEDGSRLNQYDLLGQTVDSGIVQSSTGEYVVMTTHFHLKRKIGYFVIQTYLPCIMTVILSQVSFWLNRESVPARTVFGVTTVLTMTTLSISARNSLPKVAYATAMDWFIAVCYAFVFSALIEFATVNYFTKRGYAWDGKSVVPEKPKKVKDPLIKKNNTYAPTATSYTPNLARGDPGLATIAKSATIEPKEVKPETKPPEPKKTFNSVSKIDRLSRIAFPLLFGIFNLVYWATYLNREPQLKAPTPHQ
Sequence of Clu-GABA α1β2γ2 (A0A8I3RPG5 25-473): as the sequence (A0A8I3RPG5 25-473) above
Sequence of Clu-GABA α1β2γ2 (E2RSQ0 40-467): as the sequence (E2RSQ0 40-467) above

Row | SMILES | IC50 (Hsa-GABA α2β3γ2; [5]) | IC50 (Hsa-GABA α5β2γ2; [6]) | IC50 (Hsa-GABA α3β2γ2; [5]) | IC50 (Hsa-GABA α6β2γ2; [6]) | IC50 (Hsa-GABA α2β2γ2; [7]) | average GABA current inhibition (Clu-GABARs) | average GABA current inhibition (Hsa-GABARs) | IC50 (Clu-GABA α2β3γ2; [5]) | IC50 (Clu-GABA α1β2γ2; [5]) | IC50 (Clu-GABA α3β2γ2; [8]) | IC50 (Clu-GABA α2β2γ2; [9]) | IC50 (Clu-GABA α5β2γ2; [5]) | inhibitory effect on human and canine GABARs (in words) (human and canine GABARs) | IC50 (Hsa-GABA α1β2γ2; [5]) | inhibition of human GABARs (in words) (Hsa-GABARs) | maximum in vivo concentration in dog plasma [1] | other results
1 | O=C(CNC(=O)c1ccc(C2=NOC(c3cc(Cl)cc(C(F)(F)F)c3)(C(F)(F)F)C2)c2ccccc12)NCC(F)(F)F (centres unmarked) [Afoxolaner, afoxolaner] | 20.5 µM | 6.3 µM | 15 µM | 11.7 µM | 9.9 µM | 57% | 59% | 15.7 µM | 3 µM | 17.9 µM | 20.6 µM | 7.4 µM | partial to high inhibition | – | – | – | Cmax ([1]; oral dosing at 2.5 mg/kg, read-out: Cmax (peak concentration in the bloodstream)): 4.7 µM
2 | Cc1cc(C2=NOC(c3cc(Cl)cc(Cl)c3)(C(F)(F)F)C2)ccc1C(=O)NCC(=O)NCC(F)(F)F (centres unmarked) [Fluralaner, fluralaner] | 5.5 µM | 2.7 µM | 4.9 µM | 2.2 µM | 1.9 µM | 76% | 82% | 13 µM | 4.3 µM | 9.4 µM | 2.2 µM | 2.3 µM | partial to high inhibition | 5.7 µM | high inhibition | – | current inhibition (Hsa-GABA α5β2γ2; at 30 μM): > 90%; current inhibition (Hsa-GABA α6β2γ2; at 30 μM): > 90%; current inhibition (Hsa-GABA α2β2γ2; at 30 μM): > 90%; maximum plasma concentration ([1]; converted from ng/ml): 6.1 µM; maximum plasma concentration [1]: 3400 ng/mL; brain penetration (in words) [2]: brain penetration of fluralaner was observed
3 | Cc1cc(C2=NO[C@@](c3cc(Cl)c(Cl)c(Cl)c3)(C(F)(F)F)C2)sc1C(=O)NCC(=O)NCC(F)(F)F [Lotilaner, lotilaner] | – | – | – | – | – | 20% | 13% | – | – | – | – | – | inactive | – | – | 6.7 µM | IC50 (Hsa-GABA α2β3γ2): > 30 µM; IC50 (Hsa-GABA α5β2γ2): > 30 µM; IC50 (Hsa-GABA α1β2γ2): > 30 µM; IC50 (Hsa-GABA α3β2γ2): > 30 µM; IC50 (Hsa-GABA α6β2γ2): > 30 µM; IC50 (Hsa-GABA α2β2γ2): > 30 µM; neurological symptoms (in words) [3]: did not reveal neurological symptoms; IC50 (Clu-GABA α2β3γ2): > 30 µM; IC50 (Clu-GABA α1β2γ2): > 30 µM; IC50 (Clu-GABA α3β2γ2): > 30 µM; IC50 (Clu-GABA α2β2γ2): > 30 µM; IC50 (Clu-GABA α5β2γ2): > 30 µM; IC50 (human and canine GABARs; range or bound over all eleven subunit combinations): > 30 µM; inhibitory effect on human and canine GABARs (in words) (human and canine GABARs; listed as lotilaner): little or no inhibitory effect; also recorded: did not show any significant inhibition
4 | CS(=O)(=O)CC(=O)N1CC2(C1)OCc1cc(C3=NO[C@@](c4cc(Cl)c(F)c(Cl)c4)(C(F)(F)F)C3)ccc12 [Sarolaner, sarolaner] | > 30 µM | 8.4 µM | 13.4 µM | 16.1 µM | 19.5 µM | 57% | 53% | 13.4 µM | 21.8 µM | 13.1 µM | 10.2 µM | 10.2 µM | partial to high inhibition | 21.9 µM | partial inhibition | 1.9 µM | Cmax ([1]; dose of 2 mg/kg body weight, read-out: Cmax in dog plasma): 1.9 µM
5 | CN1C(=O)CN=C(c2ccccc2)c2cc(Cl)ccc21 [diazepam] | – | – | – | – | – | – | – | – | – | – | – | – | – | – | – | – | positive modulation [4]: > 200%
